According to patent US11746374B2, “Methods and platform for screening and selecting metabolites and their receptors” (BOARD OF REGENTS, THE UNIVERSITY OF TEXAS SYSTEM, priority 2017, dated 2023):
Where two headings read alike, the source gives them in different places.

Columns and labels:
P2X2 [1] = biological target: T1, P2X2 (Homo sapiens, UniProt Q9UBL9); experiment: Plate-based aequorin luminescence assay of P2X2 expressed in yeast; format: cell-based; parameters: expressed in transfected cells; host or cells: Saccharomyces cerevisiae BY4741 dCne1p, genome-integrated under the GAL1 promoter, aequorin on a high-copy plasmid
T1 sequence (Q9UBL9 1-471): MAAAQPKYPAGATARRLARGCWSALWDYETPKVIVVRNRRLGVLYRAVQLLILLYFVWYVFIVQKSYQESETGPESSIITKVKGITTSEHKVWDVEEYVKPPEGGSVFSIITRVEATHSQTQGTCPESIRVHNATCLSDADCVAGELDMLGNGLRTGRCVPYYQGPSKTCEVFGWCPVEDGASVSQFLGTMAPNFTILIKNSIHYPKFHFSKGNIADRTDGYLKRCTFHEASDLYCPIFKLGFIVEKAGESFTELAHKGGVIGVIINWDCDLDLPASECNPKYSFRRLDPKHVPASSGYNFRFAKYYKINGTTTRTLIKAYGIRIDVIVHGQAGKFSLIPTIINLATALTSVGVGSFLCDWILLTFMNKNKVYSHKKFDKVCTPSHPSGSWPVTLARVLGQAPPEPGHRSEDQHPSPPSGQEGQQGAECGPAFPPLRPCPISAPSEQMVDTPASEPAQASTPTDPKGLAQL
Procedure: (§1) Ion channel activity in yeast was tested with the purinergic P2X ion channel family. Channel gating was assessed by an aequorin assay in which aequorin is co-expressed with the receptor and, upon addition of the prosthetic group coelenterazine and addition of calcium, blue light is released. The aequorin-based functional assay was performed in all seven P2X receptors (FIG. 8). P2X1-7 were integrated into the chromosome to mitigate copy number variation between clones and were induced with galactose with the pGal1 promoter. […] Among those receptors that didn't work, it was suspected that improvements in expression and trafficking can improve functionality. For example, by modulating trafficking domains within the P2X4 receptor, aggregation was reduced in vesicles (FIG. 9), and it is believed that this tactic can be employed in other receptors. […] This can be because P2X2 has the slowest desensitization rates of the family (and is often considered “non-desensitizing”) and has the highest unitary conductance (30 pS).
To determine whether or not this truncated channel gated in yeast, an aequorin-based functional assay was used. Here aequorin, a bioluminescent protein, emits a photon upon binding calcium. This is done with the aid of coelenterazine, which must be added exogenously to yeast. The reaction is not catalytic, and the off-rate of calcium is too slow to observe on the timescales utilized in our assays. To optimize conditions for expression of both the receptor and reporter, a combination of integration, low-copy, and high-copy vectors was used. At this point, it was only possible to produce a signal upon addition of ATP, the native ligand, when both the receptor and reporter were expressed on high-copy plasmids (FIG. 56).
(§2) BY4741ΔCne1p cells were transformed with vectors containing P2X variants. Transformants were validated and made competent for a subsequent transformation with a vector containing aequorin under the expression of the constitutive PGK2 promoter. Overnight cells were induced with 2% […] for 20 hours. Following receptor expression, cells were collected by centrifugation and concentrated to 500 μL. The concentrated cells were then incubated with 5 μL of 1 mg/mL coelenterazine for 30 minutes at room temperature. Washed cells were then resuspended in softening buffer (1 M Sorbitol, 25 mM EDTA, 50 mM DTT), followed by washes in 1 M sorbitol and water. Cells were then resuspended in 50 mM MES/Tris pH 6.5 and aliquoted into a 96-well plate. Using an F500, 25 μL of cells were monitored for luminescence for 5 seconds. Upon addition of ligand or buffer (100 μL), cells were monitored for luminescence for varying times. Cell lysis was performed with the addition of 100 μL Tween20. For inhibition, varying concentrations of suramin were incubated with cells. Luminescence was monitored before and after the addition of 100 μL of 10 μM ATP. Areas under the curve were calculated and plotted against a negative control to determine the IC50.

P2X4 = biological target: T2, P2X4 (Homo sapiens, UniProt Q99571); experiment: Aequorin functional assay of P2X receptors in yeast; format: cell-based; conditions: upon ATP addition
T2 construct: expressed in transfected cells; host or cells: Saccharomyces cerevisiae BY4741 dCne1p, single-copy integration, GAL1 promoter
T2 sequence (Q99571 with tags, fused parts or gaps): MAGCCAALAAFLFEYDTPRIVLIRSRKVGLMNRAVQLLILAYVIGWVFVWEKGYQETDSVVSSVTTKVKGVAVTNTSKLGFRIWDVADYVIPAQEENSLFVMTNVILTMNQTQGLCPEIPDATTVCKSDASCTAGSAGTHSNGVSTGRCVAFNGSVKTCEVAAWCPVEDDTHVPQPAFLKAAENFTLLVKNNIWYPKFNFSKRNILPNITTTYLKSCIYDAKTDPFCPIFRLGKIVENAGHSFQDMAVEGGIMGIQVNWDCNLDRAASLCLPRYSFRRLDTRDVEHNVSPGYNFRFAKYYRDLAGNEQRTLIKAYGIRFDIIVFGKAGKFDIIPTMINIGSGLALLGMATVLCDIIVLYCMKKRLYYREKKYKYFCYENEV
Procedure: as §1
as §2, with “Cells were then resuspended in 50 mM MES/Tris pH 6.5 and aliquoted into a 96-well plate.” left out, “Cell lysis was performed with the addition of 100 μL Tween20. For inhibition, varying concentrations of suramin were incubated with cells.” left out

P2X7 = biological target: T3, P2X7 (Homo sapiens, UniProt Q99572); experiment: as above; format: cell-based; conditions: upon ATP addition
T3 construct: expressed in transfected cells; host or cells: Saccharomyces cerevisiae BY4741 dCne1p, genome-integrated under the GAL1 promoter
T3 sequence (Q99572 1-595): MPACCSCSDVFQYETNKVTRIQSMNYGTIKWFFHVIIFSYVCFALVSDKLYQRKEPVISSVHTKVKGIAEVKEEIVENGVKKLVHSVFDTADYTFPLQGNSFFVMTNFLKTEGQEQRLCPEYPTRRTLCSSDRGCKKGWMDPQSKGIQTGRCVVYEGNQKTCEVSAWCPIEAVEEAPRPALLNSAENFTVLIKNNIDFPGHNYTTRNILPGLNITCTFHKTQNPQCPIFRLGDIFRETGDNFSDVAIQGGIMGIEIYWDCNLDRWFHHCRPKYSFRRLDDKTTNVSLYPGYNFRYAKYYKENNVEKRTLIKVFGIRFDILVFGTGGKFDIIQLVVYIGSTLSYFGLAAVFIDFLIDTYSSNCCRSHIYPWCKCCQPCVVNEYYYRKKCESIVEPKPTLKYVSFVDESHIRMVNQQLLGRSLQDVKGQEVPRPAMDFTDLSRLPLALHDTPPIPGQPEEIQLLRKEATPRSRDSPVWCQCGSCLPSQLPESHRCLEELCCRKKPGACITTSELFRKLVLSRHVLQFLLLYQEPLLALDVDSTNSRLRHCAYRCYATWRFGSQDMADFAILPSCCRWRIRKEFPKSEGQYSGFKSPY
Procedure: as §1
as §2, with “Cells were then resuspended in 50 mM MES/Tris pH 6.5 and aliquoted into a 96-well plate.” left out, “Cell lysis was performed with the addition of 100 μL Tween20. For inhibition, varying concentrations of suramin were incubated with cells.” left out

P2X1 = biological target: T4, P2X1 (Homo sapiens, UniProt P51575); experiment: as above; format: cell-based; conditions: upon ATP addition
T4 construct: expressed in transfected cells; host or cells: Saccharomyces cerevisiae BY4741 dCne1p, genome-integrated under the GAL1 promoter
T4 sequence (P51575 1-399): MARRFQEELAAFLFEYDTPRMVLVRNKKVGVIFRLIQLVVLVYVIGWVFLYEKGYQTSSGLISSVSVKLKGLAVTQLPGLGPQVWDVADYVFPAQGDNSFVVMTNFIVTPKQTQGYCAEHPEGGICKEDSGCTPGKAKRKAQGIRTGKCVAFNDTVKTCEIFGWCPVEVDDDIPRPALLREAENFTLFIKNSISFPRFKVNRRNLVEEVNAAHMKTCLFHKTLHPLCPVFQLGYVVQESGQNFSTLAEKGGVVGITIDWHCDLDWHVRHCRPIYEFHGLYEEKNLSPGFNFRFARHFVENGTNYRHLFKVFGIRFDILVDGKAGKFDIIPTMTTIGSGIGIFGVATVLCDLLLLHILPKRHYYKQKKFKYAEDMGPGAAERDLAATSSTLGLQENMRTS
Procedure: as §1
as §2, with “Cells were then resuspended in 50 mM MES/Tris pH 6.5 and aliquoted into a 96-well plate.” left out, “Cell lysis was performed with the addition of 100 μL Tween20. For inhibition, varying concentrations of suramin were incubated with cells.” left out

human 5HT1A = biological target: T5, human 5HT1A (Homo sapiens, UniProt P08908); experiment: GPCR-CPR proof of concept, emulsion PCR amplification in yeast; format: cell-based; conditions: cells treated with 250 μM serotonin vs negative control; single-copy integration at HO site
T5 construct: expressed in transfected cells; host or cells: Saccharomyces cerevisiae JG05-2.0 (2 micron plasmid, pTDH3) / JG05-1.0 (single-copy integration at HO)
T5 sequence (P08908 1-422): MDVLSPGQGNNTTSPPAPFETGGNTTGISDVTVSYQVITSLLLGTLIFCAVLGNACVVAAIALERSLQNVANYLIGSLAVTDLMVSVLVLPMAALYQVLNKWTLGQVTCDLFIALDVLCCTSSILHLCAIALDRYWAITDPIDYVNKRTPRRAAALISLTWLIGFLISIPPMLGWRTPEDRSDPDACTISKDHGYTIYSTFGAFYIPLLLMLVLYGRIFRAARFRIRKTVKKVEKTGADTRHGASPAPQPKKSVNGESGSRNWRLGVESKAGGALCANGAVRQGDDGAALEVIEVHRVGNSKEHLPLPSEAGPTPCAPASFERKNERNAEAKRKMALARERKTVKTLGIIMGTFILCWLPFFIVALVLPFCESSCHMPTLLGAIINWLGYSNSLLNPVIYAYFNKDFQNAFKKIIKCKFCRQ
Excerpt: Having shown functionality of the 5HT1A receptor, CPR strains (JG05-1.0) were constructed using this receptor. […] However, background was mitigated by increasing the pH of the CPR master mix to pH 8.8 and lowering the number of cycles from 35 to 20 during the emulsion PCR. […] Further optimization of expression parameters can greatly increase the signal:noise. For example, a much more pronounced difference can be seen when expressing the receptor from a high-copy plasmid. The experiments outlined here were also performed with cells growing with the ligand for 18 hours. By concentrating the cells and limiting the time of induction, a decrease in background signal can be seen.
Control cells were not induced. Cells (3 mL total) were collected after 18 hours of induction and spun in a tabletop centrifuge at 3,000×g for 5 minutes. The supernatant was discarded and the cell pellet was washed in water and then resuspended in 1 M sorbitol, 25 mM EDTA, 50 mM DTI′. Cells were collected again and washed in 1 M sorbitol. After another wash with water, cells were resuspended in 500 μL PCR mastermix (pH 8.0 or pH 8.8). The resuspended cells were placed into a 2 mL tube with a 1 mL rubber syringe plunger and 1200 μL of oil mix (876 Tegosoft DEC, 84 Gransurf W9, and 240 μL light mineral oil (Sigma-Aldrich)). […]

P2X2 [2] = biological target: T1, P2X2; conditions: Baqi et al., 2011; Lambrecht et al., 2002; read-out: range of reported IC50 values; cited from earlier work

Nc1ncnc2c1ncn2[C@@H]1O[C@H](COP(=O)(O)OP(=O)(O)OP(=O)(O)O)[C@@H](O)[C@H]1O [ATP]
agonism / gating of P2X2 (P2X2 [1]; aequorin luminescence): showed an ATP-dependent calcium influx
EC50 (P2X2 [1]; dose-response, area under luminescence curve): 6.7 ± 1.5 µM
ligand-dependent gating, calcium influx (P2X4): showed an ATP-dependent calcium influx
ligand-dependent gating, calcium influx (P2X7): showed an ATP-dependent calcium influx
ligand-dependent gating, calcium influx (P2X1): showed an ATP-dependent calcium influx

NCCc1c[nH]c2ccc(O)cc12 [serotonin]
increase in signal of CPR amplification product (human 5HT1A): 20 fold

Cc1ccc(C(=O)Nc2ccc(S(=O)(=O)O)c3cc(S(=O)(=O)O)cc(S(=O)(=O)O)c23)cc1NC(=O)c1cccc(NC(=O)Nc2cccc(C(=O)Nc3cc(C(=O)Nc4ccc(S(=O)(=O)O)c5cc(S(=O)(=O)O)cc(S(=O)(=O)O)c45)ccc3C)c2)c1 [suramin]
IC50 (P2X2 [2]): 2 to 48 µM
IC50 (P2X2 [1]; cells equilibrated with suramin, then 10 μM ATP): 31.6 ± 1.4 µM
